Laboratory results reported in ChEMBL document CHEMBL4304805, “Antibacterial activity of 2-amino-4-hydroxypyrimidine-5-carboxylates and binding to Burkholderia pseudomallei 2-C-methyl-d-erythritol-2,4-cyclodiphosphate synthase” (Bioorg Med Chem Lett, 2019).

Columns and labels:
Type in all cases: functional
Conditions in all cases: read-out: DIZ
[1] = system: Burkholderia thailandensis; experiment: Antibacterial activity against Burkholderia thailandensis at 0.5 mM by Kirby Bauer disk diffusion method
Pseudomonas aeruginosa = experiment: Antibacterial activity against Pseudomonas aeruginosa at 0.5 mM by Kirby Bauer disk diffusion method
Bacillus cereus = experiment: Antibacterial activity against Bacillus cereus at 0.5 mM by Kirby Bauer disk diffusion method
Escherichia coli = experiment: Antibacterial activity against Escherichia coli at 0.5 mM by Kirby Bauer disk diffusion method
[2] = system: Mycolicibacterium smegmatis; experiment: Antibacterial activity against Mycobacterium smegmatis at 0.5 mM by Kirby Bauer disk diffusion method
Klebsiella pneumoniae = experiment: Antibacterial activity against Klebsiella pneumoniae at 0.5 mM by Kirby Bauer disk diffusion method
Corynebacterium xerosis = experiment: Antibacterial activity against Corynebacterium xerosis at 0.5 mM by Kirby Bauer disk diffusion method
[3] = system: Corynebacterium pseudodiphtheriticum; experiment: Antibacterial activity against Corynebacterium pseudodiphtheriticum at 0.5 mM by Kirby Bauer disk diffusion method
Micrococcus luteus = experiment: Antibacterial activity against Micrococcus luteus at 0.5 mM by Kirby Bauer disk diffusion method

| Structure (SMILES) | zone of inhibition at 500 µM [1] | zone of inhibition at 500 µM (Pseudomonas aeruginosa) | zone of inhibition at 500 µM (Bacillus cereus) | zone of inhibition at 500 µM (Escherichia coli) | zone of inhibition at 500 µM [2] | zone of inhibition at 500 µM (Klebsiella pneumoniae) | zone of inhibition at 500 µM (Corynebacterium xerosis) | zone of inhibition at 500 µM [3] | zone of inhibition at 500 µM (Micrococcus luteus) |
| --- | --- | --- | --- | --- | --- | --- | --- | --- | --- |
| CCOC(=O)c1cnc(NCC2CCCO2)nc1O (stereo unspecified) | 11 mm | 0 mm | 0 mm | 0 mm | 15 mm | 0 mm | 0 mm | 0 mm | 0 mm |
| CCOC(=O)c1cnc(NCCc2ccc(F)cc2)nc1O | 9 mm | 11 mm | 11 mm | 0 mm | 14 mm | 0 mm | 0 mm | 0 mm | 0 mm |
| O=C(O)c1cnc(NCCc2ccc(Cl)cc2)nc1O | 12 mm | 19 mm | – | 0 mm | 14 mm | 0 mm | 0 mm | 0 mm | 0 mm |
| CCOC(=O)c1cnc(Nc2cccc(-c3ccccc3)c2)nc1O | 0 mm | 0 mm | 15 mm | 0 mm | 15 mm | 0 mm | 0 mm | 0 mm | 0 mm |
| CCOC(=O)c1cnc(Nc2ccc(CC(=O)O)cc2)nc1O | 8 mm | 0 mm | 11 mm | 10 mm | 0 mm | 9 mm | 0 mm | 0 mm | 0 mm |
| O=C(O)c1cnc(NCc2ccc(Cl)nc2)nc1O | 12 mm | 10 mm | – | – | – | – | – | – | – |
| CCOC(=O)c1cnc(NCc2ccccc2Cl)nc1O | 0 mm | 0 mm | 10 mm | 0 mm | 0 mm | 0 mm | 0 mm | 0 mm | 15 mm |
| CCOC(=O)c1cnc(Nc2ccc(-c3ccccc3)cc2)nc1O | 0 mm | 0 mm | 11 mm | 0 mm | 0 mm | 0 mm | 0 mm | 0 mm | 0 mm |
| O=C(O)c1cnc(NCCc2ccncc2)nc1O | 10 mm | 0 mm | – | – | – | – | – | – | – |
| CCOC(=O)c1cnc(NCCc2ccccn2)nc1O | 0 mm | 0 mm | 8 mm | – | – | – | – | – | – |
| CCOC(=O)c1cnc(NCCc2cccc(F)c2)nc1O | 0 mm | 0 mm | 0 mm | 0 mm | 0 mm | 0 mm | 0 mm | 0 mm | 0 mm |
| CCOC(=O)c1cnc(NCCc2ccncc2)nc1O | 4 mm | 0 mm | 8 mm | – | – | – | – | – | – |
| CCOC(=O)c1cnc(NCCc2ccc(Cl)c(Cl)c2)nc1O | 0 mm | 0 mm | 10 mm | 0 mm | 0 mm | 0 mm | 0 mm | 0 mm | 0 mm |
| O=C(O)c1cnc(Nc2ccc3cn[nH]c3c2)nc1O | 0 mm | 0 mm | 9 mm | 0 mm | 16 mm | 9 mm | 0 mm | 0 mm | 0 mm |
| CCOC(=O)c1cnc(Nc2ccc3cn[nH]c3c2)nc1O | 11 mm | 12 mm | 10 mm | 7 mm | 17 mm | 12 mm | 7 mm | 0 mm | 0 mm |
| CCOC(=O)c1cnc(NCCc2ccc(Cl)cc2)nc1O | 0 mm | 0 mm | 7 mm | – | – | – | – | – | – |
